Assay [1] has as its target T1, Neuroendocrine convertase 2 (Homo sapiens, UniProt P16519).
T1 sequence (P16519 whole entry): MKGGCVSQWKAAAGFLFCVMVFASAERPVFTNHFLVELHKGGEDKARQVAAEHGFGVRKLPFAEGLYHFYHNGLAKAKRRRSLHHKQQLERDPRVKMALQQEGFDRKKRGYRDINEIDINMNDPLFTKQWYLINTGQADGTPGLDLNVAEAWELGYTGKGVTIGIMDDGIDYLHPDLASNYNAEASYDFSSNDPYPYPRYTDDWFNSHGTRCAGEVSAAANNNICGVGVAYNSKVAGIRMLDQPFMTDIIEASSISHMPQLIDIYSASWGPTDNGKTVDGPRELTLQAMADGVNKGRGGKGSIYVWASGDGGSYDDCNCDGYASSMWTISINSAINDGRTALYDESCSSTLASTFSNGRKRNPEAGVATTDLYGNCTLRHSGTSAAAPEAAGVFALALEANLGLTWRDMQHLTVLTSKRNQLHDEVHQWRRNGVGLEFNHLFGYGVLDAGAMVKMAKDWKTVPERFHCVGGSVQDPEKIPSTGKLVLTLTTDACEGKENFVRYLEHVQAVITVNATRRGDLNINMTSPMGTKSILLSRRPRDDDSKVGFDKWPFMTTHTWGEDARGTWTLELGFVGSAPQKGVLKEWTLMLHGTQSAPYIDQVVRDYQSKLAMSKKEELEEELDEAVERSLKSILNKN
Put plainly: Inhibition of human PC2 expressed in Drosophila schneider 2 cells by fluorescence assay. Format: cell-based.

The target in another assay is Plasminogen (Homo sapiens, UniProt P00747). Briefly: Inhibition of plasmin.
Plasminogen, sequence (P00747 97-580 limits assumed): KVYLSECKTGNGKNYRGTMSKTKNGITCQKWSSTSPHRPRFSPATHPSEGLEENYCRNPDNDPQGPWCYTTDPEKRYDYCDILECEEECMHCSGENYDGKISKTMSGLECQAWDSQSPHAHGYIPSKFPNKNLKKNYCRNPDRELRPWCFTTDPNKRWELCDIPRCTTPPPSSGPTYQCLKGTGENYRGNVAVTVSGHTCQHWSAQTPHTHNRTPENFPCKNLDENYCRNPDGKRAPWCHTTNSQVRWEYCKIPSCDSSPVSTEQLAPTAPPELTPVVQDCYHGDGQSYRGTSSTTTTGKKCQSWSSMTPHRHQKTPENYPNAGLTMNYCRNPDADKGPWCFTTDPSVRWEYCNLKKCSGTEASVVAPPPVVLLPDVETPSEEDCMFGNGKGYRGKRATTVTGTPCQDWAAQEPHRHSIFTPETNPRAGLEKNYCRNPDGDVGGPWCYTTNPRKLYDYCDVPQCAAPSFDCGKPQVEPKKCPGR
Plasminogen, sequence (P00747 581-810 limits assumed): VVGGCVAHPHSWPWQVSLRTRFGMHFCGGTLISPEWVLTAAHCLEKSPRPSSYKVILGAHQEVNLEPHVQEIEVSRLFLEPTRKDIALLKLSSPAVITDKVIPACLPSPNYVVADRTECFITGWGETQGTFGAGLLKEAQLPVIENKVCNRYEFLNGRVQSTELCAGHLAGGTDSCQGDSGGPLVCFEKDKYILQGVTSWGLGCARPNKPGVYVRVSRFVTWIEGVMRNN
The target in a further assay is Coagulation factor X (Homo sapiens, UniProt P00742). Put plainly: Inhibition of factor 10a.
Coagulation factor X, sequence (P00742 41-179 limits assumed): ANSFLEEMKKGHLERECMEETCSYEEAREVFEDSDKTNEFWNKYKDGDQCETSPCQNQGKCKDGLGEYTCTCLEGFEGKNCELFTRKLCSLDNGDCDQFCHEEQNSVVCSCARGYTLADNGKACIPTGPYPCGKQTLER
Coagulation factor X, sequence (P00742 235-488 limits assumed): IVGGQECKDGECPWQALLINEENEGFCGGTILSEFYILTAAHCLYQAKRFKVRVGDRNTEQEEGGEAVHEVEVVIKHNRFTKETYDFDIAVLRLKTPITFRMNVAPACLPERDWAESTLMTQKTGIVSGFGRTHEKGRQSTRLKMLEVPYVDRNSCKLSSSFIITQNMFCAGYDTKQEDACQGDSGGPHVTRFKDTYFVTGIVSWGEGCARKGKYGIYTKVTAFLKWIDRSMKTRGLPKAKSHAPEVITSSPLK
A further assay deals with Prothrombin (Homo sapiens, UniProt P00734). Briefly: Inhibition of thrombin.
For a further assay, the target named is Furin (Homo sapiens, UniProt P09958).
Furin, sequence (P09958 whole entry): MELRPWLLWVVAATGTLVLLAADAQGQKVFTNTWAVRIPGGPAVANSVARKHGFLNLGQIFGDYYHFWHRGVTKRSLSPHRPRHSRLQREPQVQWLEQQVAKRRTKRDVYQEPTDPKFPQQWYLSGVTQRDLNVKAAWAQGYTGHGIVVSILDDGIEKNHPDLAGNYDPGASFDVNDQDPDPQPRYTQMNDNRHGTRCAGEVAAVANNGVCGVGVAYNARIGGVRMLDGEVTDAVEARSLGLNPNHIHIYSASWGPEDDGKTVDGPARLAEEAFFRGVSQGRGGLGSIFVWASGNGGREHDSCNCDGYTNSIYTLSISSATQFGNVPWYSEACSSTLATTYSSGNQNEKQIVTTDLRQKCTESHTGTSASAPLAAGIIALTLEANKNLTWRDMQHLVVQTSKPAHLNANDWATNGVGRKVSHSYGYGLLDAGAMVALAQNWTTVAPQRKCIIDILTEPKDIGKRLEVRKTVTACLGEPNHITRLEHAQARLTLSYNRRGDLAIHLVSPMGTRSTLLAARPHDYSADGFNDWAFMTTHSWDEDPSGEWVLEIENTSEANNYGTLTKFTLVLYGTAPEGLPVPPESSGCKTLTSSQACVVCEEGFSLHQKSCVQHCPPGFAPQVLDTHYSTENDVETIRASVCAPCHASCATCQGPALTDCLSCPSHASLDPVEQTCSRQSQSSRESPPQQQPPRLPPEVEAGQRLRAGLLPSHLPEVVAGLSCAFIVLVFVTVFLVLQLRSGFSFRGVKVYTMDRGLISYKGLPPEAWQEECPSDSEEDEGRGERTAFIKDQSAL
In assay [2] the target is T2, Proprotein convertase subtilisin/kexin type 6 (Homo sapiens, UniProt P29122).
T2 sequence (P29122 whole entry): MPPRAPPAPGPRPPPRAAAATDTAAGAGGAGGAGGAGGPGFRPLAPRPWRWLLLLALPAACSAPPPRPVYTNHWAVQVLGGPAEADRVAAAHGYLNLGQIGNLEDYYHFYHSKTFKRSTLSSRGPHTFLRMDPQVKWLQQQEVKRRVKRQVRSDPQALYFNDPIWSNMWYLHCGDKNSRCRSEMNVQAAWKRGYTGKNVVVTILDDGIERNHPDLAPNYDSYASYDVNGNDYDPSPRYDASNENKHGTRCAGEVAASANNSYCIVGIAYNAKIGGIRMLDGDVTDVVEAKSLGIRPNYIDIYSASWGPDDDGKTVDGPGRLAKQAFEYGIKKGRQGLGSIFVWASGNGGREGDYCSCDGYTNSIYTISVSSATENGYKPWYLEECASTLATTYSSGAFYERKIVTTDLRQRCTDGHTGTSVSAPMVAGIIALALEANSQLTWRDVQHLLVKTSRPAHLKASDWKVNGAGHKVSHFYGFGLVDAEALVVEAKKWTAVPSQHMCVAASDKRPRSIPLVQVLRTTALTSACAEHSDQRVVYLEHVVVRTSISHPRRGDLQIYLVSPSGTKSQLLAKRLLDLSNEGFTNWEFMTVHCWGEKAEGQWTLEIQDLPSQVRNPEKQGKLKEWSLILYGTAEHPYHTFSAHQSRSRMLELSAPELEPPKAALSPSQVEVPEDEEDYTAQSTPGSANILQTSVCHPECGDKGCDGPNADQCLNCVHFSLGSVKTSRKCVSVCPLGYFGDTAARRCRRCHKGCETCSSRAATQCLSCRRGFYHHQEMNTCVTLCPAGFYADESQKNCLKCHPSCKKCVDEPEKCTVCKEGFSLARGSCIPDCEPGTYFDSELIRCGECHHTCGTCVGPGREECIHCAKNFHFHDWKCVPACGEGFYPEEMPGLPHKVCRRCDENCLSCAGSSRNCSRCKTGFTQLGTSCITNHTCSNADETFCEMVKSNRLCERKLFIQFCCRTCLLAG
Briefly: Inhibition of human PACE4 expressed in Drosophila schneider 2 cells by fluorescence assay. It counts as cell-based.

Assay [3] has as its target Proprotein convertase subtilisin/kexin type 5 (Homo sapiens, UniProt Q92824). Briefly: Inhibition of human PC5/6 expressed in Drosophila schneider 2 cells by fluorescence assay. Format: cell-based.
Assay [4] concerns the target T3, Proprotein convertase subtilisin/kexin type 7 (Homo sapiens, UniProt Q16549).
T3 sequence (Q16549 whole entry): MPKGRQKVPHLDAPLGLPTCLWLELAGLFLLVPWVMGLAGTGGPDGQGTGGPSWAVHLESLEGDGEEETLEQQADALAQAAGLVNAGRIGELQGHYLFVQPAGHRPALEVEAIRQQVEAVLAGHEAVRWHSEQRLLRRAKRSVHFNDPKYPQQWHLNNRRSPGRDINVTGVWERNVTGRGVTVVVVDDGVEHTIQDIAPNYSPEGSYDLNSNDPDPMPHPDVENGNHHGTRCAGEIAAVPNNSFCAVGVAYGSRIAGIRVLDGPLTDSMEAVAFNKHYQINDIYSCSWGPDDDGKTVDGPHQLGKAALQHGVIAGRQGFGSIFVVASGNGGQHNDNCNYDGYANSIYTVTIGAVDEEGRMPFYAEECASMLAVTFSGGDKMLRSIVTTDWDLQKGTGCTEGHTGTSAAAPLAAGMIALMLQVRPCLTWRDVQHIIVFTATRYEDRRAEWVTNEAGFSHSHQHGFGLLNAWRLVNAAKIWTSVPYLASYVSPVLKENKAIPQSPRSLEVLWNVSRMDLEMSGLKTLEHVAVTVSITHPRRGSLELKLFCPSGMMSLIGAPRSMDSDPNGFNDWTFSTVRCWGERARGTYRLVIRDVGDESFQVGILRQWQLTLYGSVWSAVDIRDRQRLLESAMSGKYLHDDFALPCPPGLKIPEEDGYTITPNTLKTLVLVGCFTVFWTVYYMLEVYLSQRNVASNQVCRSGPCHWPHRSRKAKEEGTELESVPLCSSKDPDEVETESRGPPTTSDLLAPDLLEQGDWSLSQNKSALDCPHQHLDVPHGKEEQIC
Briefly: Inhibition of human PC7 expressed in Drosophila schneider 2 cells by fluorescence assay. Format: cell-based.

Assay [5] deals with T4, Neuroendocrine convertase 1 (Homo sapiens, UniProt P29120).
T4 sequence (P29120 whole entry): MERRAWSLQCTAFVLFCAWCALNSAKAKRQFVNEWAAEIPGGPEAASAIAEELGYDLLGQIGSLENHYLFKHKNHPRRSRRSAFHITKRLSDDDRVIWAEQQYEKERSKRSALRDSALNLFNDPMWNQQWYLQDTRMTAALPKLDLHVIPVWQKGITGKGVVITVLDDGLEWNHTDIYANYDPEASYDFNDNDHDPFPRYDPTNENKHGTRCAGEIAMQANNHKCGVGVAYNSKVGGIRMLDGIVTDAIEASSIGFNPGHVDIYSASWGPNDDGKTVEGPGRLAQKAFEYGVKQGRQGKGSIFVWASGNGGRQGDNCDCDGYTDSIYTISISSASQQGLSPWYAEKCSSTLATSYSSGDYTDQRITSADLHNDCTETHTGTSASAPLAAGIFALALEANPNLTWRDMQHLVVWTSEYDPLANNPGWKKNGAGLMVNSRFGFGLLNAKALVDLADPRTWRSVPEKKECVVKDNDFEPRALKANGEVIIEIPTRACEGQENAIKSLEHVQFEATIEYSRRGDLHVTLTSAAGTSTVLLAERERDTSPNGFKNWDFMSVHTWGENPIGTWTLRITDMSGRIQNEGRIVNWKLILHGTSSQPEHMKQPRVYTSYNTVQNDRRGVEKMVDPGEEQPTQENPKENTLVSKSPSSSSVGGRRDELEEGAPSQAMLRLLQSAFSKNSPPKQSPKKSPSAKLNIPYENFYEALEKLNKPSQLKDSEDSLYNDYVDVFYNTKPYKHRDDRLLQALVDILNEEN
Put plainly: Inhibition of human PC1/3 expressed in Drosophila schneider 2 cells by fluorescence assay. It counts as cell-based.

The nature of the next assay: cells. It counts as cell-based. The following applies: Canis lupus familiaris, MDCK.

Each structure is given as a SMILES string. Residues, ends and D or L forms follow the SMILES beside them. *: point of attachment. Agmatine = N=C(N)NCCCCN*; PhAc = O=C(Cc1ccccc1)*

Proprotein convertase subtilisin/kexin type 5, sequence (Q92824 whole entry): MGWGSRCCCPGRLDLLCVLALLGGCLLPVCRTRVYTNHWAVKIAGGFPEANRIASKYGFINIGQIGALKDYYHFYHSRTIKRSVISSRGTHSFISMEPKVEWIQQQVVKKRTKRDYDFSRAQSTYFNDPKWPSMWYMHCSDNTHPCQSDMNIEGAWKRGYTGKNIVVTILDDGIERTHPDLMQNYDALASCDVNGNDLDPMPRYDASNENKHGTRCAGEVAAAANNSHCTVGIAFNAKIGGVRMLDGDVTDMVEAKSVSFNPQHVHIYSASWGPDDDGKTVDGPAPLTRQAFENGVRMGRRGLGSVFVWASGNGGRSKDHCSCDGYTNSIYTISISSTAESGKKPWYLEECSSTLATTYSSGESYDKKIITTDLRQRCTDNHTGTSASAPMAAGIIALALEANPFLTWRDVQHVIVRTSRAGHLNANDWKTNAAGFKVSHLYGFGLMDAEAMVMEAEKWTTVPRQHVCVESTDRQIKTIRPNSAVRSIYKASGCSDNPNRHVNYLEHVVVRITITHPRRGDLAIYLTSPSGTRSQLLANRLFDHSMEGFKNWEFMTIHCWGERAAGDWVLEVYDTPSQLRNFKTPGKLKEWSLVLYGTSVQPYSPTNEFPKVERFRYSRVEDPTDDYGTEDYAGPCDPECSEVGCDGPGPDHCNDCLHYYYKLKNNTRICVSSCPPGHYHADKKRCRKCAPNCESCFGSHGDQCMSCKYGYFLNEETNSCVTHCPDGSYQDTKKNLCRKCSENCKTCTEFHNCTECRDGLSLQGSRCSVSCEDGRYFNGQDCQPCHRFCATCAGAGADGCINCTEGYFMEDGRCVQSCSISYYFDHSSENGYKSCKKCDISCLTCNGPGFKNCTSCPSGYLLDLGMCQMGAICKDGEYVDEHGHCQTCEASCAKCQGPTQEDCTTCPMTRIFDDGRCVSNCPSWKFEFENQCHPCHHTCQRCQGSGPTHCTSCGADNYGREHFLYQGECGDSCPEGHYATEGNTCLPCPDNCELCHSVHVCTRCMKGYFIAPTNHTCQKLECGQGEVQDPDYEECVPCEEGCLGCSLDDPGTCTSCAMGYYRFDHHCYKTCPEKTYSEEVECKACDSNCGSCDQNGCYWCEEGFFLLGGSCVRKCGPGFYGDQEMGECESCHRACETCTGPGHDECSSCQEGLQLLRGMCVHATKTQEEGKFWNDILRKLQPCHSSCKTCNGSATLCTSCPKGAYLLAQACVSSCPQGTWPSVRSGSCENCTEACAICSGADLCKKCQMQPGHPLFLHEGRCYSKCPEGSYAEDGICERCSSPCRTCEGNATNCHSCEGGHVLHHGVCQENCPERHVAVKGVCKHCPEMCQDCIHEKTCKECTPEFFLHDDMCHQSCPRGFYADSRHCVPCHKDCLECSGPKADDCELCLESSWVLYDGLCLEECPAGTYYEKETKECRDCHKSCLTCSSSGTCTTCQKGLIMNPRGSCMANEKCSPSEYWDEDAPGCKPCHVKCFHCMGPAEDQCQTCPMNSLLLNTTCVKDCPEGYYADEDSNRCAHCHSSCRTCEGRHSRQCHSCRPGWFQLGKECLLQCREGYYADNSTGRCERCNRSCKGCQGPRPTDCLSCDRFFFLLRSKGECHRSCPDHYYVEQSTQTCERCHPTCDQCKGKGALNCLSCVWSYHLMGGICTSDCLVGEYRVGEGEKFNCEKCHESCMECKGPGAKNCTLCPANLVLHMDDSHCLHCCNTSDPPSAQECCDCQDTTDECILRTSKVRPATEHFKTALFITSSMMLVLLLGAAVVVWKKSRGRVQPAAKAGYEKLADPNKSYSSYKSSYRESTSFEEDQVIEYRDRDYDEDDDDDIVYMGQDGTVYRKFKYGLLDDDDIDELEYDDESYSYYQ

The term Ki denotes the equilibrium dissociation constant of an inhibitor or competing ligand from its target. `CC(C)[C@H](NC(=O)[C@H](CCCNC(=N)N)NC(=O)Cc1ccccc1)C(=O)N[C@@H](CCCNC(=N)N)C(=O)NCCCCNC(=N)N` (PhAc-Arg-Val-Arg-Agmatine): the Ki is greater than 10 µM in assay [1]; 97 µM at Plasminogen; 83 µM on Coagulation factor X; 102 µM on Prothrombin; 0.078 µM on Furin; 0.042 µM in assay [2]. In addition, the results for the Ki in [3], in [4] and in assay [5] were 0.085 µM, greater than 10 µM and 0.053 µM, respectively.
`CC(C)[C@H](NC(=O)[C@H](CCCN=C(N)N)NC(=O)Cc1ccccc1)C(=O)N[C@@H](CCCN=C(N)N)C(=O)NCc1cccc(CN)c1` returned a Ki at Furin of 1.32 µM.
Same read-out and setting: under `CCCCCCCCCC(=O)N[C@@H](CCCN=C(N)N)C(=O)N[C@H](C(=O)N[C@@H](CCCCN)C(=O)NCc1ccc(C(=N)N)cc1)C(C)C` stands 0.0033 µM; under `CC(C)[C@H](NC(=O)[C@H](CCCN=C(N)N)NC(=O)Cc1ccccc1)C(=O)N[C@@H](CCCN=C(N)N)C(=O)NCC1CCNCC1`, 9.71 µM.
The compound `CC(C)[C@H](NC(=O)[C@H](CCCNC(=N)N)NC(=O)Cc1ccccc1)C(=O)N[C@@H](CCCNC(=N)N)C(=O)NCc1ccc(CN)cc1` had a Ki at Furin of 0.627 µM.
The same measure, in the same setting: under `CC(C)[C@H](NC(=O)[C@H](CCCN=C(N)N)NC(=O)Cc1ccccc1)C(=O)N[C@@H](CCCN=C(N)N)C(=O)NCCCN=C(N)N` stands 0.063 µM; under `CC(C)[C@H](NC(=O)[C@H](CCCNC(=N)N)NC(=O)Cc1ccccc1)C(=O)N[C@@H](CCCNC(=N)N)C(=O)NCCCCCN`, 0.553 µM.
`CC(C)[C@H](NC(=O)[C@H](CCCN=C(N)N)NC(=O)Cc1ccccc1)C(=O)N[C@@H](CCCN=C(N)N)C(=O)NCCCCN`: the Ki on Furin was determined as 7.49 µM.
The same measure, in the same setting: then `CC(C)[C@H](NC(=O)[C@H](CCCNC(=N)N)NC(=O)Cc1ccccc1)C(=O)N[C@@H](CCCNC(=N)N)C(=O)NCCCN`, with 3.02 µM; and `CC(C)[C@H](NC(=O)[C@H](CCCN=C(N)N)NC(=O)Cc1ccccc1)C(=O)N[C@@H](CCCN=C(N)N)C(=O)NCc1ccc(CN=C(N)N)cc1`, with 1.43 µM.
As usually defined, the IC50 is the point on the concentration scale where inhibition reaches its midpoint. Higher therefore signals lower potency. Turning to `CC(C)[C@H](NC(=O)[C@H](CCCNC(=N)N)NC(=O)Cc1ccccc1)C(=O)N[C@@H](CCCNC(=N)N)C(=O)NCc1ccc(C(=N)N)cc1`, the Ki in assay [1] stood at 0.312 µM; on Plasminogen, 6 µM; at Coagulation factor X it was 40 µM; on Prothrombin it was 23 µM; in assay [2], 0.0006 µM; in assay [3], 0.0016 µM. The Ki turned out to be 6.15 µM in [4] and 0.00075 µM in assay [5]. In “cells”, this compound displayed an IC50 of 10 µM.
`CC(C)[C@H](NC(=O)[C@H](CCCN=C(N)N)NC(=O)Cc1ccccc1)C(=O)N[C@@H](CCCN=C(N)N)C(=O)NCc1cccc(CN=C(N)N)c1` showed a Ki at Furin of 2.73 µM.
As to `CC(C)[C@H](NC(=O)[C@H](CCCNC(=N)N)NC(=O)Cc1ccccc1)C(=O)N[C@@H](CCCNC(=N)N)C(=O)NCC1CCN(C(=N)N)CC1`, the inhibition constant (Ki) in [1] is greater than 10 µM; on Plasminogen, greater than 1000 µM; on Coagulation factor X, 123 µM; on Prothrombin, 50 µM; on Furin, 0.053 µM; in assay [2] it was 0.067 µM. Besides, the results for the Ki in assay [3], in assay [4] and in [5] were 0.173 µM, greater than 10 µM and 0.07 µM, respectively.
Turning to `CC(C)[C@H](NC(=O)[C@H](CCCN=C(N)N)NC(=O)Cc1ccccc1)C(=O)N[C@@H](CCCN=C(N)N)C(=O)NCCCCCN=C(N)N`, the Ki on Furin stood at 1.07 µM.
As to `CC(=O)N[C@@H](CCCNC(=N)N)C(=O)N[C@H](C(=O)N[C@@H](CCCNC(=N)N)C(=O)NCc1ccc(C(=N)N)cc1)C(C)C`, the Ki in [1] was found to be 1.39 µM; at Furin, 0.001 µM; in assay [2] it was 0.0024 µM; in [3] it was 0.0036 µM; in assay [4], 5.13 µM; in assay [5], 0.0017 µM.
Regarding `CCCCCCCCCC(=O)N[C@@H](CCCN=C(N)N)C(=O)N[C@H](C(=O)N[C@@H](CCCN=C(N)N)C(=O)NCc1ccc(C(=N)N)cc1)C(C)C`, the Ki in assay [1] came out at 0.055 µM; on Furin, 0.0016 µM; in assay [2], 0.003 µM; in assay [3], 0.0063 µM; in assay [4] it was 0.968 µM; in [5] it was 0.00365 µM.

The record behind these values is ChEMBL document CHEMBL1156804, “Potent inhibitors of furin and furin-like proprotein convertases containing decarboxylated P1 arginine mimetics” (J Med Chem, 2010).
